Experimental data taken from paper PMC9311539, “Antibacterial Activity against Clinical Isolates and In Vivo Efficacy of Coralmycins” (Antibiotics, 2022).
Values after ≈ are worked out from the molar mass of the structure shown. Read-outs that look alike come from different tables or passages of the source.

Columns and labels:
[1] = tested on: S. pneumoniae; experiment: MIC, broth microdilution, clinical isolates: S. pneumoniae; assay type: cell-based, Streptococcus pneumoniae
Experimental: (§1) To assess the MICs for antibiotic susceptibility, Gram-positive bacteria isolated from human clinical specimens were obtained from several general hospitals in Seoul, Korea, during 2002–2018. Staphylococcus aureus Giorgio and Streptococcus pneumoniae ATCC49619 were used to test in vivo efficacies against […], in mice.
(§2) The MICs of the antimicrobial agents were determined by a twofold microdilution broth method, as described by the Clinical and Laboratory Standards Institute. Briefly, test organisms were grown on Mueller–Hinton agar (MHA, BD Difco, Sparks, MD, USA) plates, subcultured into cation-adjusted Mueller–Hinton broth (CAMHB, BD Difco, Sparks, MD, USA), and incubated for 18 h at 35 °C. For S. pneumoniae culture, 5% sheep blood (Hanil Comed, Seongnam, Korea) was added. The cultured bacteria were diluted using phosphate-buffered saline (PBS) to achieve a bacterial cell density of approximately 5 × 10^6 CFU/mL. All test organisms were loaded into 96-well plates containing serial dilutions of the antimicrobial agents to achieve a concentration of 5 × 10^4 CFU/well. The plates were incubated at 35 °C for 18–20 h and examined for bacterial growth.

[2] = tested on: S. aureus; design: method as in PMID 28416551; conditions: s.c., cited from earlier work
[3] = tested on: S. aureus Giorgio; experiment: Neutropenic mouse thigh infection model; assay type: in vivo, female ICR mice
Experimental: (§3) For the respiratory tract infection model, neutropenic mice were anesthetized and intranasally inoculated with a 50 μL suspension of S. pneumoniae ATCC49619 (4.4 × 10^8 CFU/mL). For the thigh infection model, the neutropenic mice were administered an intramuscular injection of a 100 μL suspension of S. aureus Giorgio (1 × 10^6 CFU/mL) into both thighs. For both models, four mice were included in each group. At 2 h after infection, two mice were sacrificed, and the infected thighs or lungs (n = 4) were excised to determine the initial bacterial levels. […] At 24 h after infection, the mice were sacrificed by cervical dislocation; their thighs or lungs were removed, homogenized, serially diluted with saline, and plated onto MHA to count the number of bacteria remaining. The number of viable bacterial cells (CFU) in the thighs or lungs of vehicle- and drug-treated mice was determined.

[4] = tested on: S. aureus Giorgio; experiment: Time-kill assay, S. aureus Giorgio; assay type: cell-based, Staphylococcus aureus
Experimental: (§4) Time-kill analysis was performed by the NCCLS M26-A method. The test organisms (S. aureus Giorgio, S. pneumoniae ATCC49619, MRSA CCARM 3167, and VRE 3) incubated in CAMHB for 18 h at 35 °C were diluted to 10^5 CFU/mL with fresh CAMHB, and the diluted cultures were preincubated for 2 h. For S. pneumoniae culture, 5% sheep blood (Hanil Comed, Seongnam, Korea) was added. […] Culture aliquots (0.1 mL) were removed after 0, 2, 4, 6 and 24 h of incubation, and serial 10-fold dilutions were prepared in saline as needed. The numbers of viable cells were determined on drug-free MHA plates after 20 h of incubation. A compound was considered bactericidal if the original inoculum was reduced by 3 log CFU/mL (99.9%) at each concentration or was considered bacteriostatic if the inoculum was reduced by 0–3 log CFU/mL.

[5] = tested on: MSSA; experiment: MIC, broth microdilution, clinical isolates: MSSA; assay type: cell-based; conditions: Staphylococcus aureus
Experimental: as §1, §2

[6] = tested on: VRE; experiment: MIC, broth microdilution, clinical isolates: VRE; assay type: cell-based, vancomycin-resistant Enterococcus; conditions: Enterococcus, VRE
Experimental: as §1, §2

[7] = tested on: CNS (coagulase-negative staphylococci); experiment: MIC, broth microdilution, clinical isolates: CNS; assay type: cell-based
Experimental: as §1, §2

[8] = tested on: Vancomycin-sensitive E. faecalis; experiment: MIC, broth microdilution, clinical isolates: vancomycin-sensitive E. faecalis; assay type: cell-based, Enterococcus faecalis; conditions: Enterococcus faecalis
Experimental: as §1, §2

[9] = tested on: MRSA CCARM 3167; experiment: Time-kill assay, MRSA CCARM 3167; assay type: cell-based, Staphylococcus aureus
Experimental: as §4

[10] = tested on: Vancomycin-sensitive E. faecium; experiment: MIC, broth microdilution, clinical isolates: vancomycin-sensitive E. faecium; assay type: cell-based, Enterococcus faecium; conditions: Enterococcus faecium
Experimental: as §1, §2

[11] = tested on: S. aureus Giorgio; experiment: MIC against S. aureus Giorgio; assay type: cell-based, Staphylococcus aureus; conditions: Staphylococcus aureus
Experimental: as §2

[12] = tested on: VRE 3; experiment: MIC against VRE 3; assay type: cell-based, vancomycin-resistant Enterococcus; conditions: Enterococcus
Experimental: as §2

[13] = tested on: S. pneumoniae ATCC49619; experiment: MIC against S. pneumoniae ATCC49619; assay type: cell-based; conditions: Streptococcus pneumoniae, ATCC49619
Experimental: as §2

[14] = tested on: MRSA CCARM 3167; experiment: MIC against MRSA CCARM 3167; assay type: cell-based; conditions: Staphylococcus aureus
Experimental: as §2

[15] = cited from earlier work
[16] = tested on: S. pneumoniae ATCC49619; experiment: Neutropenic mouse respiratory tract infection model; assay type: in vivo, female ICR mice; conditions: for reduction of the starting bacterial burden compared to the 2-h control group: second trial
Experimental: as §3

[17] = tested on: MRSA; experiment: MIC, broth microdilution, clinical isolates: MRSA; assay type: cell-based, Staphylococcus aureus; conditions: for MIC50 / MIC90: Staphylococcus aureus, MRSA
Experimental: as §1, §2

[18] = tested on: S. pneumoniae ATCC49619; experiment: Time-kill assay, S. pneumoniae ATCC49619; assay type: cell-based, Streptococcus pneumoniae
Experimental: as §4

[19] = tested on: VRE 3; experiment: Time-kill assay, VRE 3; assay type: cell-based, vancomycin-resistant Enterococcus
Experimental: as §4

[20] = in vivo; conditions: female, ICR, mouse, plasma
[21] = design: method as in PMID 34123255; conditions: cited from earlier work
[22] = tested on: E. coli ATCC 25922; design: method as in PMID 34123255; conditions: cited from earlier work
[23] = tested on: E. coli ATCC 25922; design: method as in PMID 34123255; conditions: 37.5 mg/kg/day; cited from earlier work
[24] = s.c. 4 and 20 mg/kg at 3 and 6 h after infection
[25] = 32 clinical isolates, read-out: MIC50
[26] = 32 clinical isolates, read-out: MIC90

Structure (SMILES): CN[C@H](CC(C)C)C(=O)N[C@H]1C(=O)N[C@@H](CC(N)=O)C(=O)N[C@H]2C(=O)N[C@H]3C(=O)N[C@H](C(=O)N[C@H](C(=O)O)c4cc(O)cc(O)c4-c4cc3ccc4O)[C@H](O)c3ccc(c(Cl)c3)Oc3cc2cc(c3O[C@@H]2O[C@H](CO)[C@@H](O)[C@H](O)[C@H]2O[C@H]2C[C@](C)(N)[C@H](O)[C@H](C)O2)Oc2ccc(cc2Cl)[C@H]1O [Vancomycin]
- MIC90 ([1]; 27 clinical isolates): 0.5 µg/mL (≈ 0.345 µM)
- MIC50 ([1]; Streptococcus pneumoniae): 0.25 µg/mL (≈ 0.173 µM)
- MIC90 ([1]; Streptococcus pneumoniae): 0.5 µg/mL (≈ 0.345 µM)
- in vivo effect ([2]; high doses of 20–320 mg/kg bid): bactericidal effects
- in vivo effect ([2]; low doses of 0.3–5 mg/kg bid): bacteriostatic effects
- antibacterial effect in thigh infection model [3, 24]: bacteriostatic activity
- time-kill activity ([4]; 2× and 4× MIC, 24 h): bactericidal (considered bactericidal if the original inoculum was reduced by 3 log CFU/mL (99.9%) at each concentration)
- MIC50 [5]: 1 µg/mL (≈ 0.69 µM)
- MIC90 [5]: 2 µg/mL (≈ 1.38 µM)
- MIC50 [6]: > 32 µg/mL
- MIC90 [6]: > 32 µg/mL
- MIC50 [7]: 2 µg/mL (≈ 1.38 µM)
- MIC90 [7]: 4 µg/mL (≈ 2.76 µM)
- MIC50 [8]: 2 µg/mL (≈ 1.38 µM)
- MIC90 [8]: 2 µg/mL (≈ 1.38 µM)
- time-kill activity ([9]; 2× and 4× MIC, 24 h): bactericidal (considered bactericidal if the original inoculum was reduced by 3 log CFU/mL (99.9%) at each concentration)
- MIC50 [10]: 1 µg/mL (≈ 0.69 µM)
- MIC90 [10]: 2 µg/mL (≈ 1.38 µM)
- MIC [11]: 2 µg/mL (≈ 1.38 µM)
- MIC [12]: 64 µg/mL (≈ 44.2 µM)
- MIC [13]: 0.5 µg/mL (≈ 0.345 µM)
- MIC [14]: 2 µg/mL (≈ 1.38 µM)
- bound to plasma proteins [15]: 10–50%
- in vivo effect (bacteriostatic or bactericidal) ([16]; 4 mg/kg bid s.c.): bacteriostatic
- in vivo effect (bacteriostatic or bactericidal) ([16]; 20 mg/kg bid s.c.): bactericidal
- reduction of the starting bacterial burden compared to the 2-h control group ([16]; 20 mg/kg bid): 1.46 log10 CFU/lung
- MIC50 [17]: 1 µg/mL (≈ 0.69 µM)
- MIC90 [17]: 2 µg/mL (≈ 1.38 µM)
- time-kill activity ([18]; 2× and 4× MIC, 24 h): bactericidal (considered bactericidal if the original inoculum was reduced by 3 log CFU/mL (99.9%) at each concentration)

Structure (SMILES): CO[C@@H](C(N)=O)[C@H](NC(=O)c1ccc(NC(=O)c2ccc([N+](=O)[O-])cc2)cc1)C(=O)Nc1ccc(C(=O)Nc2ccc(C(=O)Nc3ccc(C(=O)O)cc3OC(C)C)c(O)c2OC(C)C)cc1 [DH-coralmycin A]
- MIC50 ([1]; Streptococcus pneumoniae, 27 clinical isolates, read-out: MIC50): 0.5 µg/mL (≈ 0.544 µM)
- MIC90 ([1]; Streptococcus pneumoniae, 27 clinical isolates, read-out: MIC90): 4 µg/mL (≈ 4.35 µM)
- time-kill activity ([19]; 1× MIC): bacteriostatic (considered bacteriostatic if the inoculum was reduced by 0–3 log CFU/mL)
- time-kill activity ([19]; 2× and 4× MIC, 24 h): bactericidal (considered bactericidal if the original inoculum was reduced by 3 log CFU/mL (99.9%) at each concentration)
- antibacterial effect in thigh infection model ([3]; 20 mg/kg bid): almost no antibacterial effect
- antibacterial effect in thigh infection model [3, 24]: almost no antibacterial effect
- time-kill activity ([4]; 1× MIC): bacteriostatic (considered bacteriostatic if the inoculum was reduced by 0–3 log CFU/mL)
- time-kill activity ([4]; 2× and 4× MIC, 24 h): bactericidal (considered bactericidal if the original inoculum was reduced by 3 log CFU/mL (99.9%) at each concentration)
- half-life ([20]; iv, 2 mg/kg): 130 ± 64.8 min
- half-life ([20]; sc, 20 mg/kg): 421 ± 73.2 min
- MIC50 ([5]; 26 clinical isolates, read-out: MIC50): 1 µg/mL (≈ 1.09 µM)
- MIC90 ([5]; 26 clinical isolates, read-out: MIC90): 2 µg/mL (≈ 2.17 µM)
- MIC50 ([6]; 46 clinical isolates, read-out: MIC50): 4 µg/mL (≈ 4.35 µM)
- MIC90 ([6]; 46 clinical isolates, read-out: MIC90): 16 µg/mL (≈ 17.4 µM)
- MIC50 ([7]; 31 clinical isolates, read-out: MIC50): 1 µg/mL (≈ 1.09 µM)
- MIC90 ([7]; 31 clinical isolates, read-out: MIC90): 16 µg/mL (≈ 17.4 µM)
- MIC50 [8, 25]: 2 µg/mL (≈ 2.17 µM)
- MIC90 [8, 26]: 4 µg/mL (≈ 4.35 µM)
- time-kill activity ([9]; 1× MIC): bacteriostatic (considered bacteriostatic if the inoculum was reduced by 0–3 log CFU/mL)
- time-kill activity ([9]; 2× and 4× MIC, 24 h): bactericidal (considered bactericidal if the original inoculum was reduced by 3 log CFU/mL (99.9%) at each concentration)
- MIC50 [10, 25]: 1 µg/mL (≈ 1.09 µM)
- MIC90 [10, 26]: 4 µg/mL (≈ 4.35 µM)
- MIC ([11]; read-out: MIC): 0.06 µg/mL (≈ 0.0652 µM)
- MIC ([12]; read-out: MIC): 2 µg/mL (≈ 2.17 µM)
- MIC ([13]; read-out: MIC): 0.25 µg/mL (≈ 0.272 µM)
- MIC ([14]; read-out: MIC): 0.25 µg/mL (≈ 0.272 µM)
- in vivo effect (bacteriostatic or bactericidal) ([16]; 4 mg/kg bid s.c.): static effect
- in vivo effect (bacteriostatic or bactericidal) ([16]; 20 mg/kg bid s.c.): static effect
- in vivo effect (bacteriostatic or bactericidal) ([16]; 100 mg/kg bid s.c.): bactericidal effects
- antibacterial effect in respiratory tract infection model ([16]; first experiment, s.c. 4 and 20 mg/kg at 3 and 6 h after infection): significant antibacterial effects
- reduction of the starting bacterial burden compared to the 2-h control group ([16]; s.c. 100 mg/kg bid): 0.96 log10 CFU/lung
- MIC50 ([17]; 42 clinical isolates, read-out: MIC50): 4 µg/mL (≈ 4.35 µM)
- MIC90 ([17]; 42 clinical isolates, read-out: MIC90): 8 µg/mL (≈ 8.7 µM)
- times less active than coralmycin A as evidenced by the MIC90 ([17]; against MRSA, CNS, and VRE): 8 to 16 times
- time-kill activity ([18]; 1× MIC): bacteriostatic (considered bacteriostatic if the inoculum was reduced by 0–3 log CFU/mL)
- time-kill activity ([18]; 2× and 4× MIC, 24 h): bactericidal (considered bactericidal if the original inoculum was reduced by 3 log CFU/mL (99.9%) at each concentration)

Structure (SMILES): CC(C)Oc1c(NC(=O)c2ccc(NC(=O)C(CC(N)=O)NC(=O)c3ccc(NC(=O)c4ccc(C#N)cc4)cc3)cc2)ccc(C(=O)Nc2ccc(C(=O)O)cc2)c1O (stereo not shown) [CN-DM-861]
- detection in tissues (thigh, kidney, lung) ([21]; after s.c. administration): well detected
- AUC ([21]; i.v. 5 mg/kg): approximately 2 μg·h/mL
- T1/2 ([21]; i.v. 5 mg/kg): approximately 1 h
- Vdss ([21]; i.v. 5 mg/kg): 3.5 L/kg
- bioavailability ([21]; reported): 25%
- AUC/MIC ratio ([21]; s.c. 5 mg/kg, MIC against E. coli ATCC 25922): 159.5
- AUC ([21]; s.c. 5 mg/kg): 517 ng·h/mL
- Cmax ([21]; s.c. 5 mg/kg): 128 ng/mL
- Tmax ([21]; s.c. 5 mg/kg): 1.7 h
- MIC [22]: 0.02 mg/L (≈ 0.0246 µM)
- in vivo effect in three mouse models [23]: potent bactericidal effects
